What was measured:
[1] = molecular target: T1, recombinant human AMPK complex 7 (containing α2β1γ1) (Homo sapiens, UniProt P54646+Q9Y478); experiment: In vitro AMPK activation assay (AMPKSAMSF), AMPK complex 7; assay type: biochemical; details: for Emax: 10-point titration data expressed as % maximum AMP activation; for EC50: human AMPK complex 7, inflection point reflecting 50% of the maximum activation
T1 construct: made in house; host or cells: Spodoptera frugiperda Sf21 cells (baculovirus, triple infection)
T1 sequence (P54646 whole entry): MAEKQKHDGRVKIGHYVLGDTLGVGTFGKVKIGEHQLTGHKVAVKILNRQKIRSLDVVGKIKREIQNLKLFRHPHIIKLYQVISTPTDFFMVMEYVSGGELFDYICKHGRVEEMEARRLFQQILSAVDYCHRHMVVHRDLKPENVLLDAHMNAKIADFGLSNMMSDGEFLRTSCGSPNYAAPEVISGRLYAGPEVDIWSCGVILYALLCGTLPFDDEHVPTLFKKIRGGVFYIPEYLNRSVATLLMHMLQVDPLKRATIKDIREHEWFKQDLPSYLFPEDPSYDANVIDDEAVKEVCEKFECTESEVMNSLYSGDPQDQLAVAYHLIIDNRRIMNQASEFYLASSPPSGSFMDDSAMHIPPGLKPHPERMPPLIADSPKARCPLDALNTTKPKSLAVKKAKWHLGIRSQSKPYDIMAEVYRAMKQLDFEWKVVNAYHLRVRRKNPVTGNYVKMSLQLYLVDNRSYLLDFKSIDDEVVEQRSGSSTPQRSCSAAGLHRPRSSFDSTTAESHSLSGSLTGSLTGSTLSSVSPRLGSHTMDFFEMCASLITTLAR
T1 sequence (Q9Y478 whole entry): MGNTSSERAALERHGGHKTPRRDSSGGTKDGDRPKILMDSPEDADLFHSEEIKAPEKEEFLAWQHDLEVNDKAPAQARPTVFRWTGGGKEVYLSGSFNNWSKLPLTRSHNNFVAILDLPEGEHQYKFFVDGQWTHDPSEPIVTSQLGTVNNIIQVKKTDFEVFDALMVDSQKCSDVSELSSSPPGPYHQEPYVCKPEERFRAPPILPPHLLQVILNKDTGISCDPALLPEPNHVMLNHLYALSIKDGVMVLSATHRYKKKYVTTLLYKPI
T1 sequence (P54619 whole entry partner): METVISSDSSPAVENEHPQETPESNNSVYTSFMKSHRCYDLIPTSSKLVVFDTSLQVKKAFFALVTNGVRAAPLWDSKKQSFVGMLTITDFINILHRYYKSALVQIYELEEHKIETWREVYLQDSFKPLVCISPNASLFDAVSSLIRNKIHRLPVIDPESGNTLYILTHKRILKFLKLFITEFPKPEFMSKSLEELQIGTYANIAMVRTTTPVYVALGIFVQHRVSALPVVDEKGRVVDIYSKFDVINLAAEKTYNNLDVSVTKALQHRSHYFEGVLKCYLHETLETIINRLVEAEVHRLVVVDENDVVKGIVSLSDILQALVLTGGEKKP
Experimental: (§1) AMPKSAMSF (In Vitro AMPK Activation Assay)
(§2) The recombinant human AMPK complex 1 (containing α1β1γ1) and complex 7 (containing α2β1γ1) were obtained from baculovirus expression system. Recombinant viruses were generated by cotransfection of AMPK/pBacPak9 clones with Baculogold baculovirus DNA (Pharmingen) in spodoptera frugiperda 21 cells according to the manufacturer's instructions. Each round of virus amplification was performed for 5 days in Grace's medium containing 10% serum. Virus that had been subjected to three rounds of amplification was used for all protein production procedures. To express the AMPK complex, sf21 cells were adapted to serum free medium (SF900 II, Invitrogen) by sequential dilution from serum containing stocks into SF900II medium and maintained in shaker flasks at 90 rpm at 27° C. The recombinant AMPK enzyme complex was produced by triple infection, one recombinant virus for each of the subunits, in sf21 cells under serum free conditions. Cells were infected in log phase, 1×10^6 cells/ml, at a multiplicity of infection of ˜5. Cells were harvested by centrifugation at 10,000×g for 15 minutes after 72 hours of infection with viruses. The insect cell pellet from 2 liters of culture was resuspended in 50 ml lysis buffer (20 mM Tris-HCl, 50 mM NaCl, 50 mM NaF, 30 mM Na PPi, 0.25 M sucrose, 10 mM ZnCl2, 2 mM DTT, 0.4 mg/ml digitonin) and subjected to two cycles of freeze-thaw lysis in a dry-ice ethanol bath. Insoluble material was removed by centrifugation at 10,000×g and the supernatant was fractionated with use of polyethylene glycol (PEG). The protein fraction precipitating between 2.5 and 6% PEG was used for further purification using a Blue-Sepharose step (Zhou et al, J. Clin. Invest. 108, 1167-1174, 2001).
(§3) The in vitro AMPK activation assay is performed in a volume of 30 μl in a 384-well plate. Enzyme reactions were assembled in the microtiter plate by adding 15 μl of 2× enzyme in assay buffer (20 mM HEPES, pH 7.3, 5 mM MgCl2, 3 mM DTT, 0.01% Brij 35 and CamK Kinase, to activate AMPK) to wells which contained either DMSO or compound. The reaction was initiated with the addition of 15 μ12× substrate mixture containing 200 μM ATP, and 3.0 μM fluorescently labeled SAMS (5-FAM-HMRSAMSGLHLVKRR—COOH) in assay buffer. After 45-minute incubation at 25° C., the reaction was stopped by the addition of 70 μl stop buffer (100 mM HEPES, pH 7.3, 40 mM EDTA, 0.015% Brij 35). Phosphorylated 5-FAM SAMS product is assessed using a Caliper EZ Reader LabChip microfluidics reader. Product conversion is determined by calculating the peak heights of the substrate and product and reporting the product/(product+substrate) peak ratio. The 10-point titration data were expressed as % maximum AMP activation. The results were plotted using 4 parameter fit and the inflection point reflecting 50% of the maximum activation was reported as the EC50.
(§4) The compounds of present invention, including the compounds of Examples 1-142, were tested in the in vitro AMPK activation assay using recombinant human AMPK complex 1 (containing α1β1γ1) or AMPK complex 7 (containing α2β1γ1) and found to have increased activation of human AMPK complex 1 or complex 7 at concentrations of less than 50 μM.

[2] = molecular target: T2, recombinant human AMPK complex 1 (containing α1β1γ1) (Homo sapiens, UniProt Q13131+Q9Y478); experiment: In vitro AMPK activation assay (AMPKSAMSF), AMPK complex 1; assay type: biochemical; details: for Emax: 10-point titration data expressed as % maximum AMP activation; for EC50: human AMPK complex 1, inflection point reflecting 50% of the maximum activation
T2 construct: made in house; host or cells: Spodoptera frugiperda Sf21 cells (baculovirus, triple infection)
T2 sequence (Q13131 whole entry): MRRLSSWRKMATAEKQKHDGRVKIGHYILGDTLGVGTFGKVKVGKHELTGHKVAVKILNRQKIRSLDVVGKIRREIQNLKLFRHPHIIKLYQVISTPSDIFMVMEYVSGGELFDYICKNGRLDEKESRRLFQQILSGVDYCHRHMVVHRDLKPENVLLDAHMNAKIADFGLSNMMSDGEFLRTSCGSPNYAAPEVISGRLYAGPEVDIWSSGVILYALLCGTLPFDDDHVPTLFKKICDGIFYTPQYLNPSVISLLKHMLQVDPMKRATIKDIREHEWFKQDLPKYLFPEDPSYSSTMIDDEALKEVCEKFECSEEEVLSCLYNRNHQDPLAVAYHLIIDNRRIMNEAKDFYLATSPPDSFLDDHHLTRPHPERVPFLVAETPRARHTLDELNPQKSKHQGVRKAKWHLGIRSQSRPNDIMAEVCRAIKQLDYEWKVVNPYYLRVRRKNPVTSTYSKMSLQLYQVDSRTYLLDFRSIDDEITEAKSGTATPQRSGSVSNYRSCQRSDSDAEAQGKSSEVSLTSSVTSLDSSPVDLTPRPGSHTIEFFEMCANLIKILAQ
T2 sequence (Q9Y478 whole entry): as the sequence (Q9Y478 whole entry) above
T2 sequence (P54619 whole entry partner): as the sequence (P54619 whole entry partner) above
Experimental: as §1, §2, §3, §4

ob/ob and db/db mice = details: following 8 weeks of administration; cited from earlier work

Emax [1]	EC50 [1]	SMILES	Emax [2]	EC50 [2]	blood glucose reduction (ob/ob and db/db mice)
492%	< 1 nM	Oc1ccccc1-c1ccc(-c2nc3cc(O[C@@H]4CO[C@H]5[C@@H]4OC[C@H]5O)[nH]c3cc2Cl)cc1 [Example 107, (3R,3aR,6R,6aR)-6-((6-chloro-5-(2′-hydroxy-[1,1′-biphenyl]-4-yl)-1H-pyrrolo[3,2-b]pyridin-2-yl)oxy)hexahydrofuro[3,2-b]furan-3-ol]			
		CCOc1ccc(-c2cc3cc(Cc4ccc(C)c(C(=O)O)c4)[nH]c3cc2Cl)c(F)c1 [Example 8, 5-((6-chloro-5-(4-ethoxy-2-fluorophenyl)-1H-indol-2-yl)methyl)-2-methylbenzoic acid]	265%	493 nM	
		Cc1ccc(Cc2cc3cc(-c4ccc(-c5ccc(S(C)(=O)=O)cc5)cc4)c(Cl)cc3[nH]2)cc1C(=O)O [Example 3]	680%	13 nM	
		CS(=O)(=O)c1ccc(-c2ccc(-c3nc4cc(CCCCO)[nH]c4cc3Cl)cc2)cc1 [Example 21]	590%	2 nM	
		CS(=O)(=O)c1ccc(-c2ccc(-c3nc4cc(CCCC(=O)O)[nH]c4cc3Cl)cc2)cc1 [Example 22]	416%	8 nM	
495%	8 nM	O=S1(=O)CCN(c2ccc(-c3nc4cc(O[C@@H]5CO[C@H]6[C@@H]5OC[C@H]6O)[nH]c4cc3Cl)cc2)CC1 [Example 105]			
		CS(=O)(=O)c1ccc(-c2ccc(-c3nc4cc(C[C@H]5CC[C@H](CO)CC5)[nH]c4cc3Cl)cc2)cc1 [Example 24, ((trans)-4-((6-chloro-5-(4′-(methylsulfonyl)-[1,1′-biphenyl]-4-yl)-1H-pyrrolo[3,2-b]pyridin-2-yl)methyl)cyclohexyl)methanol]	256%	14 nM	
333%	< 3 nM	Cc1ccc(Oc2cc3nc(-c4ccc(C5(CO)CC5)cc4)c(Cl)cc3[nH]2)cc1P(=O)(O)O [Example 114, (5-((6-chloro-5-(4-(1-(hydroxymethyl)cyclopropyl)phenyl)-1H-pyrrolo[3,2-b]pyridin-2-yl)oxy)-2-methylphenyl)phosphonic acid]			
		Cc1ccc(Cc2cc3nc(-c4ccc(C5(CO)CC5)cc4)c(Cl)cc3[nH]2)cc1C(=O)O [Example 18, 5-((6-chloro-5-(4-(1-(hydroxymethyl)cyclopropyl)phenyl)-1H-pyrrolo[3,2-b]pyridin-2-yl)methyl)-2-methylbenzoic acid]	573%	4 nM	
295%	12 nM	OC[C@H]1OC[C@@H](Oc2cc3nc(-c4ccc(-c5ccccc5)cc4)c(Cl)cc3[nH]2)[C@@H]1O [Example 123]			
412%	< 1 nM	O[C@@H]1CO[C@H]2[C@@H]1OC[C@H]2Oc1cc2nc(-c3ccc(-c4ccc(-n5cncn5)cc4)cc3)c(Cl)cc2[nH]1 [Example 110]			
530%	< 3 nM	OCC1(c2ccc(-c3nc4cc(O[C@@H]5CO[C@H]6[C@@H]5OC[C@H]6O)[nH]c4cc3F)cc2)CC1 [Example 72]			
		CS(=O)(=O)c1ccc(-c2ccc(-c3cc4cc(CCCC(=O)O)[nH]c4cc3Cl)cc2)cc1 [Example 15]	370%	24 nM	
		Cc1ccc(Cc2cc3cc(-c4ccc(N5CCCC5)cc4)c(Cl)cc3[nH]2)cc1C(=O)O [Example 1, 5-((6-chloro-5-(4-(pyrrolidin-1-yl)phenyl)-1H-indol-2-yl)methyl)-2-methylbenzoic acid]	581%	37 nM	
384%	4 nM	OC[C@H]1OC[C@H](Oc2cc3nc(-c4ccc(C5(CO)CC5)cc4)c(Cl)cc3[nH]2)C[C@@H]1O [Example 122]			
354%	5 nM	O[C@@H]1CO[C@H]2[C@@H]1OC[C@H]2Oc1cc2nc(-c3ccc(-c4ccccc4)cc3)c(Cl)cc2[nH]1 [Example 69]			
486%	56 nM	Cc1c(O[C@@H]2CC[C@H]3[C@@H]2OC[C@H]3O)[nH]c2cc(Cl)c(-c3ccc(-c4ccccc4)cc3)nc12 [Example 138]			
446%	< 3 nM	O[C@@H]1CO[C@H]2[C@@H]1OC[C@H]2Oc1cc2nc(-c3ccc4c(c3)OCO4)c(Cl)cc2[nH]1 [Example 76]			
		Cc1ccc(Cc2cc3cc(-c4ccc(-c5ccncc5)cc4)c(Cl)cc3[nH]2)cc1C(=O)O [Example 30, 5-{[6-chloro-5-(4-pyridin-4-ylphenyl)-1H-indol-2-yl]methyl}-2-methylbenzoic acid]	583%	15 nM	
305%	15 nM	OC[C@H]1OC[C@@H](Oc2cc3nc(-c4ccc(C5(CO)CC5)cc4)c(Cl)cc3[nH]2)[C@@H]1O [Example 124]			
472%	< 3 nM	Cn1ccc2cc(-c3nc4cc(O[C@@H]5CO[C@H]6[C@@H]5OC[C@H]6O)[nH]c4cc3Cl)ccc21 [Example 77]			
		Cc1ccc(Cc2cc3cc(-c4ccc(C5(CO)CC5)cc4)c(Cl)cc3[nH]2)cc1C(=O)O [Example 6, 5-((6-chloro-5-(4-(1-(hydroxymethyl)cyclopropyl)phenyl)-1H-indol-2-yl)methyl)-2-methylbenzoic acid]	601%	10 nM	
230%	< 3 nM	Cc1ccc(Oc2cc3nc(-c4ccc(-c5ccccc5)cc4)c(Cl)cc3[nH]2)cc1C(=O)O [Example 80]			
		CS(=O)(=O)c1ccc(-c2ccc(-c3nc4cc(CCCCC(=O)O)[nH]c4cc3Cl)cc2)cc1 [Example 23]	575%	1 nM	
239%	6 nM	Cc1ccc(Oc2cc3nc(-c4ccc(-c5ccccc5)cc4)c(F)cc3[nH]2)cc1C(=O)O [Example 82]			
		NC(=O)c1ncn([C@@H]2O[C@H](CO)[C@@H](O)[C@H]2O)c1N [AICAR]			35%
213%	71 nM	OC[C@H]1OC[C@H](Oc2cc3nc(-c4ccc(-c5ccccc5)cc4)c(Cl)cc3[nH]2)C[C@@H]1O [Example 121, (2R,3S,5R)-5-((5-([1,1′-biphenyl]-4-yl)-6-chloro-1H-pyrrolo[3,2-b]pyridin-2-yl)oxy)-2-(hydroxymethyl)tetrahydro-2H-pyran-3-ol]			
